In patent US6906205B2, “Spiro and dispiro 1,2,4-trioxolane antimalarials” (Medicines for Malaria Venture MMV, priority 2002, dated 2005):
Converted amounts (≈) assume the structure as drawn.

Experiments:
[1] = tested on: ANKA strain of P. berghei; test: single dose STI in vivo screen in infected mice; set-up: species or system Plasmodium berghei; conditions: for Activity (%) po / Activity (%) sc / Activity (%) SSVpo / Activity (%) 10 mg/kg SSV po / Activity (%) 3 mg/kg SSV po: percent reduction in parasitemia day 3 post-infection; for Activity (%) po / Survival (days) po: single 10 mg/kg po in 3% ethanol and 7% Tween 80; for Activity (%) po / Activity (%) sc / Activity (%) SSVpo: mice; for Activity (%) sc / Survival (days) sc: single 10 mg/kg sc in 3% ethanol and 7% Tween 80; for Activity (%) SSVpo: single po dose in standard suspending vehicle (SSV); for Survival (days) po / Survival (days) sc / Survival (days) SSVpo: untreated control 5.6 ± 0.3; for Survival (days) SSVpo: single po dose in SSV; for Activity (%) 10 mg/kg SSV po / Survival (days) 10 mg/kg SSV po: single 10 mg/kg po in SSV; for Activity (%) 3 mg/kg SSV po / Survival (days) 3 mg/kg SSV po: single 3 mg/kg po in SSV
Procedure: In the single dose STI in vivo screen, Moro SPF or NMRI mice infected with the ANKA strain of P. berghei (groups of 3-5 mice) were treated on day one post-infection with trioxolanes dissolved or suspended in 3% ethanol and 7% Tween 80. […] SSV consists of 0.5% w/v CMC, 0.5% v/v benzyl alcohol, 0.4% v/v Tween 80, and 0.9% w/v sodium chloride in water. Antimalarial activity was measured by percent reduction in parasitemia on day three post-infection and survival times compared to an untreated control group. Survival to day 30 post-infection is considered to be a cure. […] Other factors influencing antimalarial activity include the stability of carbon radicals formed by β-scission subsequent to the initial electron transfer to the peroxide bond and the influence of steric effects remote from the peroxide bond on the interactions between carbon radicals and potential drug targets.

[2] = tested on: P. falciparum NF54 strain (sensitive to standard antimalarials); test: semiautomated microdilution assay, [3H]-hypoxanthine incorporation, NF54 strain; assay type: cell-based, Plasmodium falciparum; conditions: NF54 strain, 72 h incubation
Procedure: (§1) Various OZ compounds were tested by the semiautomated microdilution assay against intraerythrocytic forms of Plasmodium falciparum derived from asynchronous stock cultures.
(§2) Fifty percent inhibitory concentration (IC50) were estimated by Logit regression analysis.

[3] = tested on: P. falciparum K1 strain (Thailand resistant to chloroquine); test: semiautomated microdilution assay, [3H]-hypoxanthine incorporation, K1 strain; assay type: cell-based, Plasmodium falciparum; conditions: K1 strain, 72 h incubation
Procedure: as §1, §2

Structure (SMILES)	IC50 (ng/ml) NF54 [2] [ng/mL]	IC50 (ng/ml) K1 [3] [ng/mL]	Activity (%) 10 mg/kg SSV po [1]	Survival (days) 10 mg/kg SSV po [1]	Activity (%) 3 mg/kg SSV po [1] [%]	also measured
CN(C)C[C@H]1CC[C@]2(CC1)OOC1(O2)C2CC3CC(C2)CC1C3 (stereo partly drawn) [OZ232]	0.50 (≈ 1.56 nM)	0.30 (≈ 0.933 nM)				Activity (%) po [1]: 76%; Activity (%) sc [1]: 99.94%; Activity (%) SSVpo [1]: 74%; Survival (days) po [1]: 8.0 days; Survival (days) sc [1]: 8.7 days; Survival (days) SSVpo [1]: 7.3 days
OC1(Cc2nc3ccccc3s2)CCC2(CC1)OOC1(O2)C2CC3CC(C2)CC1C3 (stereo not drawn) [OZ276]	0.94 (≈ 2.2 nM)		17/ND %	7.3/ND days		
O=[N+]([O-])c1ccc(C2(c3ccccc3)OOC3(O2)C2CC4CC(C2)CC3C4)cc1 (stereo not drawn) [OZ95]	1.3 (≈ 3.3 nM)	2.8 (≈ 7.12 nM)				Activity (%) po [1]: 31%; Activity (%) sc [1]: 49%; Activity (%) SSVpo [1]: 0%; Survival (days) po [1]: 6.0/6.0/6.0 days; Survival (days) sc [1]: 6.0/6.0/6.0 days; Survival (days) SSVpo [1]: 6.0/6.0/6.0 days
O=C(O)CCC(=O)NC[C@H]1CC[C@]2(CC1)OO[C@]1(O2)C2CC3CC(C2)CC1C3 [OZ300]	97 (≈ 247 nM)	71 (≈ 180 nM)	6%	6.8 days	0	
O=S(=O)(C[C@H]1CC[C@]2(CC1)OO[C@]1(O2)C2CC3CC(C2)CC1C3)c1ncccn1 [OZ299]	6.3 (≈ 15 nM)	6.8 (≈ 16.2 nM)	36%	6.6 days	0	
NC(=O)c1cn(C[C@H]2CC[C@]3(CC2)OO[C@]2(O3)C3CC4CC(C3)CC2C4)cn1 [OZ320]		0.68 (≈ 1.75 nM)	99.76%	10.4 days	92	Survival (days) 3 mg/kg SSV po [1]: 11.8 days
Nc1nccnc1C(=O)NC[C@H]1CC[C@]2(CC1)OO[C@]1(O2)C2CC3CC(C2)CC1C3 [OZ330]		0.55 (≈ 1.33 nM)	99.96%		82	
O=C([C@H]1CC[C@@]2(CC1)OO[C@@]1(O2)C2CC3CC(C2)CC1C3)N1CCNCC1 [OZ365]		0.79 (≈ 2.1 nM)	99.57%	8.0/8.0 days	92	Survival (days) 3 mg/kg SSV po [1]: 8.0/8.0 days
CN(C)C(=O)N1CCC2(CC1)OOC1(O2)C2CC3CC(C2)CC1C3 (stereo not drawn) [OZ133]		0.70 (≈ 2.08 nM)				Activity (%) po [1]: 94%; Activity (%) sc [1]: 72%; Activity (%) SSVpo [1]: 97%; Survival (days) po [1]: 7.0 days; Survival (days) sc [1]: 7.0 days; Survival (days) SSVpo [1]: 7.3 days
C[C@H](N)C(=O)NC[C@H]1CC[C@]2(CC1)OO[C@]1(O2)C2CC3CC(C2)CC1C3 [OZ335]	0.28 (≈ 0.768 nM)		99.95%	9.2 days	97	
O=c1ccn(C[C@H]2CC[C@]3(CC2)OO[C@]2(O3)C3CC4CC(C3)CC2C4)cc1 [OZ302]	2.9 (≈ 7.81 nM)		99.60%		88	
CCOC(=O)NC[C@H]1CC[C@]2(CC1)OO[C@]1(O2)C2CC3CC(C2)CC1C3 [OZ289]	0.56 (≈ 1.53 nM)				92	
CCOC(=O)c1ccc([C@H]2CC[C@]3(CC2)OOC2(O3)C3CC4CC(C3)CC2C4)cc1 (stereo partly drawn) [OZ164]						Activity (%) po [1]: 11%; Activity (%) sc [1]: 7%; Activity (%) SSVpo [1]: 0%; Survival (days) SSVpo [1]: 5.7 days; IC50 ([3]; Plasmodium falciparum, read-out: IC50 (ng/ml) K1): 59 ng/mL (≈ 143 nM)
NC(=O)N1CCC2(CC1)OOC1(O2)C2CC3CC(C2)CC1C3 (stereo not drawn) [OZ199]		0.69 (≈ 2.24 nM)				
O=C(Cn1ccnc1)N1CCC2(CC1)OOC1(O2)C2CC3CC(C2)CC1C3 (stereo not drawn) [OZ103]	0.17 (≈ 0.455 nM)					Activity (%) po [1]: 86%; Activity (%) sc [1]: 87%; Activity (%) SSVpo [1]: 63%; Survival (days) po [1]: 7.3 days; Survival (days) sc [1]: 7.3 days; Survival (days) SSVpo [1]: 6.7 days
CC(C)N(C(=O)N1CCC2(CC1)OOC1(O2)C2CC3CC(C2)CC1C3)C(C)C (stereo not drawn) [OZ194]	6.6 (≈ 16.8 nM)					Activity (%) po [1]: 87%; Activity (%) sc [1]: 99.95%; Activity (%) SSVpo [1]: 73%; Survival (days) po [1]: 8.3 days; Survival (days) sc [1]: 20.3 days; Survival (days) SSVpo [1]: 8.0 days
NCCNC(=O)C[C@H]1CC[C@]2(CC1)OO[C@]1(O2)C2CC3CC(C2)CC1C3 [OZ305]		1.8 (≈ 4.94 nM)	99.93%	9.2 days	96	
CC(C)(C)CC(=O)N[C@H]1CC[C@]2(CC1)OOC1(O2)C2CC3CC(C2)CC1C3 (stereo partly drawn) [OZ195]	3.7 (≈ 9.8 nM)	2.2 (≈ 5.83 nM)				

Structure (SMILES)	IC50 (ng/ml) NF54 [2] [ng/mL]	IC50 (ng/ml) K1 [3] [ng/mL]	Activity (%) 10 mg/kg SSV po [1]	Survival (days) 10 mg/kg SSV po [1]	Activity (%) 3 mg/kg SSV po [1] [%]	also measured
NC(=O)[C@@H]1CCCN1C[C@H]1CC[C@]2(CC1)OO[C@]1(O2)C2CC3CC(C2)CC1C3 [OZ327]		0.85 (≈ 2.18 nM)	97%	9.8 days	72	
NCC[C@H]1CC[C@]2(CC1)OOC1(O2)C2CC3CC(C2)CC1C3 (stereo partly drawn) [OZ229]	0.23 (≈ 0.748 nM)	0.24 (≈ 0.781 nM)				
NC(=O)c1ccc(NC[C@H]2CC[C@]3(CC2)OOC2(O3)C3CC4CC(C3)CC2C4)cc1 (stereo partly drawn) [OZ286]		0.94 (≈ 2.28 nM)		8.7 days	60	
C1CCC(NC2CCC3(CC2)OOC2(O3)C3CC4CC(C3)CC2C4)CC1 (stereo not drawn) [OZ162]	0.71 (≈ 1.96 nM)	0.50 (≈ 1.38 nM)				
O=C1CCC(=O)N1C[C@H]1CC[C@]2(CC1)OOC1(O2)C2CC3CC(C2)CC1C3 (stereo partly drawn) [OZ197]	2.0 (≈ 5.33 nM)	1.0 (≈ 2.66 nM)				
c1cnc(OC[C@H]2CC[C@]3(CC2)OO[C@]2(O3)C3CC4CC(C3)CC2C4)nc1 [OZ325]		0.62 (≈ 1.66 nM)	99.43%	8.8 days	30	
c1cnc(NC[C@H]2CC[C@]3(CC2)OO[C@]2(O3)C3CC4CC(C3)CC2C4)nc1 [OZ326]		0.65 (≈ 1.75 nM)	80%	7.4 days	7	
CCOC(=O)CNC[C@H]1CC[C@]2(CC1)OO[C@]1(O2)C2CC3CC(C2)CC1C3 [OZ290]		0.42 (≈ 1.11 nM)		9.0 days	95	
O=C(NC[C@H]1CC[C@]2(CC1)OO[C@]1(O2)C2CC3CC(C2)CC1C3)c1cccnc1 [OZ273]		0.97 (≈ 2.43 nM)			64	
O=C(NC[C@H]1CC[C@]2(CC1)OOC1(O2)C2CC3CC(C2)CC1C3)c1ccccc1O (stereo partly drawn) [OZ280]			0/ND %	5.7ND days		
c1cncc(NC[C@H]2CC[C@]3(CC2)OO[C@]2(O3)C3CC4CC(C3)CC2C4)c1 [OZ293]				8.8 days	77	
O=C(CNC(=O)c1cccnc1)NC[C@H]1CC[C@]2(CC1)OO[C@]1(O2)C2CC3CC(C2)CC1C3 [OZ316]			69%	10.0 days	7	
NS(=O)(=O)c1ccc(NC[C@H]2CC[C@]3(CC2)OO[C@]2(O3)C3CC4CC(C3)CC2C4)cc1 [OZ298]			99.95%	9.4 days	98	
FC(F)(F)c1cccc(C2(c3cccc(C(F)(F)F)c3)OOC3(O2)C2CC4CC(C2)CC3C4)c1 (stereo not drawn) [OZ46]						Activity (%) po [1]: 99%; Activity (%) sc [1]: 62%; Survival (days) po [1]: 7.7 days; Survival (days) sc [1]: 6.0 days
FC(F)(F)c1ccc(C2CCC3(CC2)OOC2(O3)C3CC4CC(C3)CC2C4)cc1 (stereo not drawn) [OZ48]						Activity (%) po [1]: 99.8%; Activity (%) sc [1]: 42%; Survival (days) po [1]: 8.7 days; Survival (days) sc [1]: 6.3 days
O=CNCC(=O)NC[C@H]1CC[C@]2(CC1)OO[C@]1(O2)C2CC3CC(C2)CC1C3 [OZ322]		0.90 (≈ 2.38 nM)	98%	10.0 days	61	
O=C(c1ccncc1)N1CCC2(CC1)OOC1(O2)C2CC3CC(C2)CC1C3 (stereo not drawn) [OZ100]						Activity (%) po [1]: 61%; Activity (%) sc [1]: 80%; Activity (%) SSVpo [1]: 36%; Survival (days) po [1]: 6.7 days; Survival (days) sc [1]: 7.0 days; Survival (days) SSVpo [1]: 6.3 days
